{"source": "patent US20160045487A1", "about": "“COMPOSITIONS AND METHODS FOR TREATING NEUROPATHY” (CHILDEREN'S MEDICAL CENTER CORPORATION, priority 2013, published 2016)", "key": {"[1]": {"system": "diabetic mice (STZ model)", "assay": "Nerve conduction velocity in sciatic nerves of STZ diabetic mice", "assay_type": "in vivo, mouse", "conditions": "cream from hyperglycemia for 16 weeks", "procedure": "To examine NCV, normo-glycemic or diabetic mice (STZ model, as described elsewhere herein) were treated with either vehicle cream or with cream containing XIB4035 from the moment they became hyperglycemic, for 16 weeks. At the end of this period, nerve conduction velocity (NCV) was measured in sciatic nerves.\nAdult female C57 Bl/6J mice were made diabetic (blood glucose >15 mmol/L) by injection of STZ (90 mg/kg i.p.) on two consecutive days, with confirmation of hyperglycemia made 7 days after STZ delivery. Paw thermal response latency of the right paw was measured every two weeks from weeks 8-16 of diabetes using a modified Hargeaves test, as described"}, "GFRα3/RET": {"molecular_target": "T1, GFRα3/RET (UniProt O60609+P35546)", "T1 construct": "N2A cells (which express RET) transfected with GFRα1 or GFRα3 expression constructs; expressed in transfected cells; host or cells: Neuro2A (N2A) cells; GFRα3 plasmid was a gift from Dr. Milbrandt; RET is endogenous", "T1 sequence (O60609 32-374 limits assumed)": "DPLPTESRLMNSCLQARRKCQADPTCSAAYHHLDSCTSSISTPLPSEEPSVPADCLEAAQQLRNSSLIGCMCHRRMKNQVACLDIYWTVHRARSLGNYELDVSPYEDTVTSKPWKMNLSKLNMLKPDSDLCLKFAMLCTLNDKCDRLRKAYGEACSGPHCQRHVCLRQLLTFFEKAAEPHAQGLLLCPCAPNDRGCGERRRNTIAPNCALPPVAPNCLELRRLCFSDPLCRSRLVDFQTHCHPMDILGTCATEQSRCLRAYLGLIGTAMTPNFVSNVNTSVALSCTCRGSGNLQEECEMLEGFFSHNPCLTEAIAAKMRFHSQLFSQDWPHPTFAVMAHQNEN", "T1 sequence (P35546 29-1115)": "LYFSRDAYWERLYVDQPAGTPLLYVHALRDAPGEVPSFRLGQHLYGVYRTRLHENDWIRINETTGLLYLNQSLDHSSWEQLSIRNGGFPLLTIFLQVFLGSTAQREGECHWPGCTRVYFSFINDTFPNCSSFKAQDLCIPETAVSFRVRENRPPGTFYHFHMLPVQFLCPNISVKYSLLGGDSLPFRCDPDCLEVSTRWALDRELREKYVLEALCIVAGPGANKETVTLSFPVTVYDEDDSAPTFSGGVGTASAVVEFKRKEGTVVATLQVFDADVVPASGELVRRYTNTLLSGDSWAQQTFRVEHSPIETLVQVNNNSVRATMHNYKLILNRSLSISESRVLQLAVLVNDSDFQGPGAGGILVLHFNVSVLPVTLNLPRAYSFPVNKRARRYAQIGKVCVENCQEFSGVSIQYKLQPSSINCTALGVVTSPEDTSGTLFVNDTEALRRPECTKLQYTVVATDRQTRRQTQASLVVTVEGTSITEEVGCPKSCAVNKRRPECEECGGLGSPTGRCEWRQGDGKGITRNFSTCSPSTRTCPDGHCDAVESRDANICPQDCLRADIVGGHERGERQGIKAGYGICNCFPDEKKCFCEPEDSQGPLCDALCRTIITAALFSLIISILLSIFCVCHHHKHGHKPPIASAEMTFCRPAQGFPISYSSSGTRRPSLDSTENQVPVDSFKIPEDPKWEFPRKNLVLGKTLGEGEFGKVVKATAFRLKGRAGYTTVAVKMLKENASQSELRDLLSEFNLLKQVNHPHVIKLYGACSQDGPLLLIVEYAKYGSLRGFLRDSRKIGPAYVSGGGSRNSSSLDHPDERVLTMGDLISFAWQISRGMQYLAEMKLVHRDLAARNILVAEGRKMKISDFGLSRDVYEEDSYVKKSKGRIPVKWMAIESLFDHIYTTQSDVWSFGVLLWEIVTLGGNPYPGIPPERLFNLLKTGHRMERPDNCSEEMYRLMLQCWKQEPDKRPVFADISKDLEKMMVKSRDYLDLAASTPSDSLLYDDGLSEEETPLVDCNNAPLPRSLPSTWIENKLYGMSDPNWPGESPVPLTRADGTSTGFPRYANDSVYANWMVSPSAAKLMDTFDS", "assay": "RET phosphorylation in N2A cells transfected with GFRα3", "assay_type": "cell-based, human GFRα3 in murine N2A cells", "procedure": "Since the original report argued that XIB4035 displaces GDNF binding to GFRα1 expressing cells (FIG. 2 in Tokugawa et al., Neurochem Int 42, 81-86 (2003).), potentially ARTN, on TH-luciferase activity and Ret phosphorylation. […] In this experiment, cells were treated with GDNF or ARTN with or without XIB4035 for 10 minutes and cell lysates were either collected immediately or treatment was washed out and replaced with growth media for 30, 60, or 120 minutes. […] Therefore, we tested cells expressing only one GFRα using either N2A cells (which express RET) transfected with GFRα1 or GFRα3 expression constructs, or B(E)2-C cells, which express only GFRα2 together with RET. […] The GFRα1 or GFRα3 transfected N2A cells were then treated with XIB4035 alone, the appropriate ligand for the expressed receptor alone, or XIB4035 and ligand in combination for 10 minutes, and collected lysates immediately after treatment or 60 minutes after washout. […] Similar results were obtained with GFRα2 and NRTN using B(E)2-C cells (FIG. 8). Thus, XIB4035 is a positive modulator of signaling by GDNF family ligands and their receptors, not an agonist for GFRα1 as previously reported.\nFor phosphorylated Ret immunoblot experiments, cells were treated with various combinations of molecules for 10 minutes and either collected immediately or had treatment washed out and returned to control treatment media for the times indicated prior to cell collection. Lysates were collected in buffer containing: 50 mM Tris-HCL, 1% TX-100, 0.25% Deoxycholic acid, 150 mM sodium chloride, 1 mM EDTA, 0.1 mM sodium fluoride, 0.1 mM sodium pyrophosphate, 0.02 mM sodium orthovanadate, and protease inhibitors Immunoblots were blocked in 5% bovine serum albumin in tris-buffered saline+0.2% Tween 20+0.1 mM sodium fluoride, 0.1 mM sodium pyrophosphate, and 0.02 mM sodium orthovanadate and probed in blocking solution using anti-phospotyrosine (4G10) mouse monoclonal antibody (1:2000; EMD Milipore Corp., Billerica, Mass.). […]"}}}
{"smiles": "CCN(CC)CCCC(C)Nc1cc(/C=C/c2ccccc2Cl)nc2cc(Cl)ccc12", "note": "(stereo not drawn) [XIB4035, N4-{7-chloro-2-[(E)-2-(2-chloro-phenyl)-vinyl]-quinolin-4-yl}-N1,N1-diethyl-pentane-1,4-diamine]", "values": [{"measurement": "nerve conduction velocity (NCV) in sciatic nerves", "setting": "[1]", "value": "not statistically different from that observed in control animals"}, {"measurement": "induction of RET phosphorylation", "setting": "GFRα3/RET; XIB4035 alone, 10 minutes", "value": "did not induce RET phosphorylation"}, {"measurement": "RET phosphorylation at the 60 min time-point compared to ligand alone", "setting": "GFRα3/RET; XIB4035 and ligand co-treatment, 60 minutes after washout", "value": "clearly prolonged"}]}
